The source of these data is patent US9150510B2, “Amino acid derivative” (NIPPON ZOKI PHARMACEUTICAL CO., LTD., priority 2008, dated 2015).

Data set [1] can be described thus: Test of blood kinetics in the rats. Type of data set: in vivo. The note with it: rat, plasma, 2 mg/kg, fasted Wistar male rats, oral single dose of mixed solution of five compounds, each compound 2 mg/5 mL/kg, n=5, LC-MS; for AUC(0-inf): read-out: AUC0-∞ (area under the curve for concentration in blood, time 0 to infinite hours); for Cmax: read-out: Cmax (maximum concentration in plasma). How it is done: Ten milligrams of a compound of the present invention was properly converted to a sodium salt with the same amount of sodium hydroxide, where necessary, and each was dissolved in 5 mL of water. Five compounds each among these aqueous solutions of the compounds of the present inventions were mixed, to prepare a mixed solution containing 0.4 mg/mL each of each compound. Six-week old Wistar SPF male rats that were fasted were orally administered with the mixed solution in a single dose using a gavage tube (each compound 2 mg/5 mL/kg, n=5). At time points of 0.25, 0.5, 1, 2, 4, and 8 hours after the administration, about 150 μL of blood was collected using a heparin-added capillary tube from veins of rat tails. The capillary tubes were centrifuged to collect the plasma. The plasma sample was deprotenized and the supernatant was diluted to prepare each of measurement sample solutions. The concentration of the compound of the present invention in each of measurement sample solutions was quantified using LC-MS, and Cmax (maximum concentration in plasma) and AUC (area under the curve for concentration in blood, time 0 to infinite (∞) hours) of the compounds of the present invention were calculated.

In the next data set the test system is ddY-type mice. Nature of the data set: Analgesic efficacy test (1): acetic acid writhing test (nociceptive pain model animal). The note with it: Mus musculus, 25 min, writhing number, male ddY mice, acetic acid i.p. 25 min after administration, mean ± standard error, read-out: Percent Suppression (%); for inhibition in vivo at 100 mg/kg: oral single dose 100 mg/kg; for inhibition in vivo at 10 mg/kg: oral single dose 10 mg/kg. The data set is classed as in vivo. The source says: A compound of the present invention was orally administered to mice, to carry out an analgesic efficacy test according to acetic acid writhing test (nociceptive pain model animal). As an experimental animal, 4-week old male ddY-type mice were previously bred, and thereafter 8 mice per one group were used in the experiment. A solution or suspension prepared by dissolving or suspending a compound of the present invention in a 0.5% (w/v) aqueous CMC-Na solution was orally administered as a test substance in a single dose. While, to a control group, a 0.5% (w/v) aqueous CMC-Na solution was administered in the same manner. After 25 minutes from administration, the mice were intraperitoneally administered with a 0.7% (v/v) acetic acid/physiological saline at the dose of 10 mL/kg. From 5 minutes thereafter, writhing number in a 10-minute period was counted, and a suppressive rate for each individual (mean±standard error) was calculated by the following formula: […]
In the test for significance difference, Baltlett's test was carried out in the comparison between multiple groups of the group administered with test substance with the control group. In the case of homoscedasticity, Dunnett's multiple comparison test of parametrics, and in the case of heteroscedasticity, Dunnett's multiple comparison test of non-parametrics were used. In addition, in the test of dose dependency, Jockheere-Terpstra's test was used. In all cases, significance difference was considered to be found at P<0.05.
For orientation: An intraperitoneal irritant provokes the stretching counted in writhing tests.

A further data set deals with Chung model rat. Nature of the data set: Analgesic efficacy test (2): Chung model rat, neuropathic pain model (allodynia, von Frey filament). The data set is classed as in vivo. The conditions noted are these: Table 13; oral single dose 10 mg/kg; Wistar male rats, L5 spinal nerve ligation; mean ± standard error. As to the method: An analgesic efficacy test was conducted using a Chung model rat, a neuropathic pain model. Using Wistar male rats after passing 9-week old as an experimental animal, a model rat was prepared in accordance with the method of Kim and Chung (Pain, 50, 355-363, 1992). Specifically, left L5 spinal nerves of rats were exposed under anesthetization with pentobarbital (35 mg/kg, intraperitoneal administration), and firmly ligated with 5-0 silk yarn at L5 dorsal root ganglion peripheral side. The animals were placed in a transparent acrylic cage of which bottom was wire netted The measurement of allodynia was carried out using von Frey filament (manufactured by North Coast Medical Inc.) and a 50% reaction threshold was calculated according to an up-down method, in accordance with methods of Chaplan et al. (J. Neurosci. Method, 53, 55-63, 1994) and Lee et al. (J. Neurophysiol., 81, 2226-2233, 1999). The 50% reaction thresholds were measured twice before injury of the spinal nerve, and those animals of which thresholds were outside the standard were removed from the operation of spinal nerve injury. On or after 14 days from the spinal nerve injury, a 50% reaction threshold was measured, and those showing thresholds of 1 g or more and less than 4 g were used as experimental animal. The group was constituted by 7 rats per group so that an average of a 50% reaction threshold for each group would be nearly even.
A solution or suspension prepared by dissolving or suspending a compound of the present invention in a 0.5% (w/v) aqueous CMC-Na solution was orally administered as a test substance in a single dose while, a 0.5% (w/v) aqueous CMC-Na solution was administered in the same manner to the control group for nerve injury. After 30 minutes from the administration, the measurement of allodynia was carried out, and a 50% reaction threshold (mean±standard error) was calculated. In the test for significance difference, Baltlett's test was carried out in the comparison between multiple groups of the group administered with test substance with the control group for nerve injury. In the case of homoscedasticity, Dunnett's multiple comparison test of parametrics, and in the case of heteroscedasticity, Dunnett's multiple comparison test of non-parametrics were used. In all cases, significance difference was considered to be found at P<0.05.

Where a name gives a salt, the structure may show the parent alone.

Consider `O=C(C=Cc1ccccc1O)N[C@@H](Cc1c[nH]c2ccccc12)C(=O)O` (as salt: sodium) [Compound 2, N^α-[3-(2-Hydroxyphenyl)acryloyl]-L-tryptophan], for which the melting point is 172 to 173 °C.

`O=C(C=Cc1ccccc1F)N[C@@H](Cc1c[nH]c2ccccc12)C(=O)O` [Compound 3, N^α-[3-(2-Fluorophenyl)acryloyl]-L-tryptophan] registered a melting point of 104 to 105 °C. In addition, in data set [1], the AUC(0-inf) was found to be 26200 ng·h/mL and the Cmax was 5800 ng/mL. For the same molecule, the inhibition in vivo at 3 mg/kg in the data set with ddY-type mice (oral single dose 3 mg/kg) was found to be 36.9 ± 10.6%.

As to `O=C(C=Cc1cc(F)ccc1F)N[C@@H](Cc1c[nH]c2ccccc12)C(=O)O` [Compound 15, N^α-[3-(2,5-Difluorophenyl)acryloyl]-L-tryptophan], in data set [1], the AUC(0-inf) came to 19400 ng·h/mL and the Cmax came to 2800 ng/mL. For the same molecule, in the data set with Chung model rat, the “50% Reaction Threshold (g), Group Administered with Test Substance, 30 Min. After Administration” value (“50% Reaction Threshold (g)” for short) is on record as 9.12 ± 1.55 g. Also, the inhibition in vivo at 100 mg/kg with ddY-type mice was 61.3 ± 9.9%.

`C=CC(=O)N[C@@H](Cc1c[nH]c2ccccc12)C(=O)O` (as salt: sodium) [Compound 1, N^α-Acryloyl-L-tryptophan] displayed a melting point of 150 to 151 °C.

Take `Cn1cc(C[C@H](NC(=O)C=Cc2ccccc2)C(=O)O)c2ccccc21` [Compound 29, 1-Methyl-N^α-(3-phenylacryloyl)-L-tryptophan]: in data set [1], the AUC(0-inf) amounted to 238000 ng·h/mL and the Cmax was 50600 ng/mL. Besides, the “50% Reaction Threshold (g)” value in the data set on Chung model rat is given as 6.45 ± 1.39 g. In addition, in the data set with ddY-type mice, the inhibition in vivo at 10 mg/kg stood at 56.8 ± 6.8%.

For `O=C(C=Cc1ccc(F)cc1)N[C@@H](Cc1c[nH]c2ccccc12)C(=O)O` (as salt: sodium) [Compound 5, N^α-[3-(4-Fluorophenyl)acryloyl]-L-tryptophan], the melting point fell in the range of 140 to 141 °C.

In the case of `O=C(C=Cc1ccccc1)N[C@@H](Cc1c[nH]c2ccccc12)C(=O)O` [Compound 8, N^α-(3-Phenylacryloyl)-L-tryptophan], in data set [1], the AUC(0-inf) was determined as 21900 ng·h/mL and the Cmax was determined as 5000 ng/mL. Also, the “50% Reaction Threshold (g)” value in the data set with Chung model rat is 8.39 ± 1.30 g. Besides, the inhibition in vivo at 10 mg/kg in the data set on ddY-type mice worked out at 67.7 ± 10.3%.

In the case of `COc1ccccc1C=CC(=O)N[C@@H](Cc1c[nH]c2ccccc12)C(=O)O` [Compound 11, N^α-[3-(2-Methoxyphenyl)acryloyl]-L-tryptophan], in data set [1], the AUC(0-inf) was 10600 ng·h/mL and the Cmax worked out at 1700 ng/mL. Further, the “50% Reaction Threshold (g)” value with Chung model rat came out at 10.55 ± 1.50 g. The inhibition in vivo at 100 mg/kg in the data set with ddY-type mice worked out at 60.9 ± 5.9%.

For `N#Cc1ccccc1C=CC(=O)N[C@@H](Cc1c[nH]c2ccccc12)C(=O)O` (as salt: sodium) [Compound 9, N^α-[3-(2-Cyanophenyl)acryloyl]-L-tryptophan], the melting point was in the range of 124 to 125 °C.

The molecule `O=C(C=Cc1ccc(O)cc1)N[C@@H](Cc1c[nH]c2ccccc12)C(=O)O` (as salt: sodium) [Compound 7, N^α-[3-(4-Hydroxyphenyl)acryloyl]-L-tryptophan] registered a melting point of 158 to 159 °C.

With `O=C(C=Cc1ccc(F)cc1)N[C@@H](Cc1c[nH]c2ccccc12)C(=O)O` [Compound 5, N^α-[3-(4-Fluorophenyl)acryloyl]-L-tryptophan], in data set [1], the AUC(0-inf) turned out to be 14600 ng·h/mL and the Cmax was determined as 2300 ng/mL. Moreover, the “50% Reaction Threshold (g)” value in the data set with Chung model rat was 6.87 ± 1.28 g. In addition, the inhibition in vivo at 10 mg/kg in the data set on ddY-type mice came out at 51.3 ± 10.9%.

Molecule `O=C(C=Cc1cccc(O)c1)N[C@@H](Cc1c[nH]c2ccccc12)C(=O)O` (as salt: sodium) [Compound 6, N^α-[3-(3-Hydroxyphenyl)acryloyl]-L-tryptophan] showed a melting point of 163 to 164 °C.

Take `C=CC(=O)N[C@@H](Cc1c[nH]c2ccccc12)C(=O)O` [Compound 1, N^α-Acryloyl-L-tryptophan]: in data set [1], the AUC(0-inf) was 24200 ng·h/mL and the Cmax worked out at 7100 ng/mL. In the data set with Chung model rat, the “50% Reaction Threshold (g)” value is on record as 11.18 ± 1.74 g. Besides, the inhibition in vivo at 10 mg/kg with ddY-type mice came to 25.7 ± 6.3%.

Turning to `O=C(C=Cc1ccc(F)cc1F)N[C@@H](Cc1c[nH]c2ccccc12)C(=O)O` [Compound 14, N^α-[3-(2,4-Difluorophenyl)acryloyl]-L-tryptophan], in data set [1], the AUC(0-inf) was 33900 ng·h/mL and the Cmax came out at 4800 ng/mL. Moreover, the “50% Reaction Threshold (g)” value in the data set on Chung model rat turned out to be 9.38 ± 1.68 g. Further, the inhibition in vivo at 10 mg/kg in the data set with ddY-type mice worked out at 43.2 ± 10.9%.

Broadly, the melting point is the temperature of the solid-liquid transition.
